# Laboratory results published in EP0366632A1, “Alternative energy substrates” (priority 1988, dated 1990).
# Legend:
# Assay type in all cases: cell-based
# Staf. aureus ATCC 6535 = test: Microorganism count in 2% ester emulsions (Example 12, Table 1); details: 2% emulsion, phosphate buffer pH=7.0, +37°C, Additive/ml 5012
# Procedure: (§1) In addition to ester, the emulsions also comprised egg-yolk phospholipid 1,2% and sterile water. The emulsions were prepared aseptically, by emulsifying sterile-filtered ester with a sterilized dispersion of egg-yolk phospholipids. Aliquots of these emulsions were diluted with a phosphate buffer (0.01 M, pH=7.0) in the proportions of 1 and 10 respectively, so as to obtain 2-percent emulsions. Various microorganisms according to Table 1 below were added to these emulsions. The samples were then incubated at +37°C for 20 hours. Counting of the number of microorganisms was started after 2 and 20 hours, in the manner described in microbiological literature. Checks were run on a pure phosphate buffer with additives of the same microorganisms as earlier, in parallel with the aforesaid experiments, while checks were run in Tryptone Soya broth (TSB) with additions of the same microorganisms, in order to ascertain whether or not the microorganisms could survive, i.e. could grow under the ideal conditions. […]
# Staf. epiderm. = test: as above; details: 2% emulsion, phosphate buffer pH=7.0, +37°C, Additive/ml 6310
# Procedure: as §1
# E. coli ATCC 8739 = test: as above; details: 2% emulsion, phosphate buffer pH=7.0, +37°C, Additive/ml 6310
# Procedure: as §1
# Enter. cloacae = test: as above; details: 2% emulsion, phosphate buffer pH=7.0, +37°C, Additive/ml 1585
# Procedure: as §1
# Serr. maresc. ATCC 14756 = test: as above; details: 2% emulsion, phosphate buffer pH=7.0, +37°C, Additive/ml 6310
# Procedure: as §1
# Ulocladium sp. (mould) = test: as above; details: 2% emulsion, phosphate buffer pH=7.0, +37°C, Additive/ml 2512
# Procedure: as §1
# Proteus vulg. ATCC 13315 = test: as above; details: 2% emulsion, phosphate buffer pH=7.0, +37°C, Additive/ml 1000
# Procedure: as §1
# [1] = test system: Ps. aeruginosa ATCC 19429; test: as above; details: 2% emulsion, phosphate buffer pH=7.0, +37°C, Additive/ml 7943
# Procedure: as §1
# Cand. parapsil. (yeast) = test: as above; details: 2% emulsion, phosphate buffer pH=7.0, +37°C, Additive/ml 5012
# Procedure: as §1
# [2] = test system: Asperg. niger ATCC 16404 (mould); test: as above; details: 2% emulsion, phosphate buffer pH=7.0, +37°C, Additive/ml 7943
# Procedure: as §1
# Klebs. pneum. ATCC 25955 = test: as above; details: 2% emulsion, phosphate buffer pH=7.0, +37°C, Additive/ml 1995
# Procedure: as §1
# [3] = test system: Cand. albicans ATCC 10231 (yeast); test: as above; details: 2% emulsion, phosphate buffer pH=7.0, +37°C, Additive/ml 6310
# Procedure: as §1
# Penicillium sp. (mould) = test: as above; details: 2% emulsion, phosphate buffer pH=7.0, +37°C, Additive/ml 3162
# Procedure: as §1
# [4] = test system: Candida albicans ATCC 10231; test: Microorganism count in 2% and 0.2% ester emulsions (Example 15); details: after 20 hours
# Procedure: The emulsions contained egg-yolk phospholipid 1,2% and sterile water, in addition to ester. The emulsions were prepared aseptically, by emulsifying sterile-filtered ester with a sterilized dispersion of egg-yolk phospholipids.
# Aliquots of these emulsions were diluted with phosphate buffer (0.01 M, pH=7.0) in the proportions of 1 and 10 and 1 and 100 of respective emulsions. Candida albicans ATCC 10231 was added to the emulsions. The samples were then incubated at +37°C for 20 hours. The microorganism count was carried out after […], 2 and 20 hours, in the manner described in microbiological literature. Parallel with the above tests, a check was made on phospholipide solution 1,2% and TSB (Tryptone soya broth) with additions Candida albicans ATCC 10231. The latter substrate was tested to ascertain whether or not the microorganisms were viable. After 20 hours, the microorganism count/ml in TSB was 10⁷, and in the phospholipid solution 10⁴. The starting concentration was about 10⁴. After 1-5 minutes, the microorganism count per […] of the tests containing 4-methyl-3-oxo-pentanoic acid ethyl ester with concentrations of 2% and 0.2% was 10⁴ and 10⁴ respectively. After 2 hours, the microorganism count was 10² and 10⁴ respectively, and after 20 hours 0 and 10⁴. […] After 20 hours, the count was 0 and 10² respectively.
# [5] = test system: Escherichia coli ATCC 8739; test: Microorganism count in ester emulsions diluted with phosphate buffer, albumin solution or TSB (Example 16)
# Procedure: The emulsions contained egg-yolk phospholipid 1,2% and sterile water in addition to ester. The emulsions were prepared aseptically, by emulsifying sterile-filtered ester with a sterilized dispersion of egg-yolk phospholipids.
# Aliquots of these emulsions were diluted at a ratio of 1 to 10 with phosphate buffer (0.01 M, pH=7.0), seruma albumin solution 20% and Tryptone soya broth (TSB) respectively. Escherichia coli ATCC 8739 were added to the emulsions. The emulsions were then incubated for 20 hours at +37°C. The microorganism count was carried out after 1-5 minutes, 2 hours and 20 hours, in the manner described in microbiological literature. Parallel with the above tests, there was made a control of phosphate buffer and TSB with additions of Escherichia coli ATCC 8739. The latter substrate was tested to ascertain whether or not the microorganisms were viable. […] The starting concentration was about 10⁴. In the samples containing 4-methyl-3-oxo-pentanoic acid ethyl ester, the combination with phosphate buffer was 0 after 5 minutes, 0 after 2 hours and 0 after 20 hours. In the combination with 20% albumin solution, the microorganism count was 0 after 5 minutes, no count was taken after 2 hours, and 0 after 20 hours. […], the count in the combination with TSB was 0, no count was taken after 2 hours, and 0 after 20 hours.
# In the samples containing 5-methyl-3-oxo-hexanoic acid ethyl ester, the count in the combination with phosphate buffer was 10 after 5 minutes, 0 after 2 hours, and 0 after 20 hours. The combination with 20% albumin solution was 10² after 5 minutes, no count was taken after 2 hours, and 0 after 20 hours. In the combination with TSB, the count was 10 after 5 minutes, no count was taken after 2 hours, and 0 after 20 hours. […] All microorganisms were eliminated within 20 hours by both esters at the same low concentration.
# [6] = 20% emulsion diluted 1 to 10 with phosphate buffer, after 5 minutes, starting concentration about 10⁴
# [7] = diluted 1 to 10 with 20% albumin solution, after 20 hours
# [8] = diluted 1 to 10 with TSB, after 20 hours
# [9] = diluted 1 to 10 with phosphate buffer, after 2 hours
# [10] = diluted 1 to 10 with phosphate buffer, after 20 hours
Compound,number of microorganisms (Staf. aureus ATCC 6535; 2 hrs),number of microorganisms (Staf. aureus ATCC 6535; 20 hrs),number of microorganisms (Staf. epiderm.; 2 hrs),number of microorganisms (Staf. epiderm.; 20 hrs),number of microorganisms (E. coli ATCC 8739; 2 hrs),number of microorganisms (E. coli ATCC 8739; 20 hrs),number of microorganisms (Enter. cloacae; 2 hrs),number of microorganisms (Enter. cloacae; 20 hrs),number of microorganisms (Serr. maresc. ATCC 14756; 2 hrs),number of microorganisms (Serr. maresc. ATCC 14756; 20 hrs),number of microorganisms (Ulocladium sp. (mould); 2 hrs),number of microorganisms (Ulocladium sp. (mould); 20 hrs),number of microorganisms (Proteus vulg. ATCC 13315; 2 hrs),number of microorganisms (Proteus vulg. ATCC 13315; 20 hrs),number of microorganisms ([1]; 2 hrs),number of microorganisms ([1]; 20 hrs),number of microorganisms (Cand. parapsil. (yeast); 2 hrs),number of microorganisms (Cand. parapsil. (yeast); 20 hrs),number of microorganisms ([2]; 2 hrs),number of microorganisms ([2]; 20 hrs),other results
CCOC(=O)CC(=O)C(C)C [4-methyl-3-oxo-pentanoic acid ethyl ester],0,0,0,0,0,0,0,0,0,0,3981,0,0,0,0,0,1000,0,3981,1000,"number of microorganisms (Klebs. pneum. ATCC 25955; 2 hrs): 0; number of microorganisms (Klebs. pneum. ATCC 25955; 20 hrs): 0; number of microorganisms ([3]; 2 hrs): 200; number of microorganisms ([3]; 20 hrs): 0; number of microorganisms (Penicillium sp. (mould); 2 hrs): 5012; number of microorganisms (Penicillium sp. (mould); 20 hrs): 0; microorganism count [4]: 0 per ml; microorganism count [5, 6]: 0; microorganism count ([5]; diluted 1 to 10 with 20% albumin solution, after 5 minutes): 0; microorganism count [5, 7]: 0; microorganism count ([5]; diluted 1 to 10 with TSB, after 4 hours): 0; microorganism count [5, 8]: 0; microorganism count [5, 9]: 0; microorganism count [5, 10]: 0"
CCOC(=O)CC(=O)CC(C)C [5-methyl-3-oxo-hexanoic acid ethyl ester],0,0,794,25,0,0,0,0,0,0,5012,0,0,0,0,0,3162,0,5012,5012,"number of microorganisms (Klebs. pneum. ATCC 25955; 2 hrs): 0; number of microorganisms (Klebs. pneum. ATCC 25955; 20 hrs): 0; number of microorganisms ([3]; 2 hrs): 1995; number of microorganisms ([3]; 20 hrs): 0; number of microorganisms (Penicillium sp. (mould); 2 hrs): 3981; number of microorganisms (Penicillium sp. (mould); 20 hrs): 316; microorganism count [4]: 0 per ml; microorganism count [5, 6]: 10; microorganism count [5, 7]: 0; microorganism count ([5]; diluted 1 to 10 with TSB, after 5 minutes): 10; microorganism count [5, 8]: 0; microorganism count [5, 9]: 0; microorganism count [5, 10]: 0"
